Test results taken from patent US11884675B2, “Heterocyclic compounds as triggering receptor expressed on myeloid cells 2 agonists and methods of use” (AMGEN INC., priority 2020, dated 2024).

Each compound was assayed against hTREM2 (Homo sapiens, UniProt Q9NZC2) (assay: TREM2 activity by cellular Syk phosphorylation (AlphaScreen/AlphaLISA) in TREM2/DAP12-HEK cells, used for Examples 1-305). Conditions: HEK293 Cells.
Sequence of hTREM2 (Q9NZC2 19-230): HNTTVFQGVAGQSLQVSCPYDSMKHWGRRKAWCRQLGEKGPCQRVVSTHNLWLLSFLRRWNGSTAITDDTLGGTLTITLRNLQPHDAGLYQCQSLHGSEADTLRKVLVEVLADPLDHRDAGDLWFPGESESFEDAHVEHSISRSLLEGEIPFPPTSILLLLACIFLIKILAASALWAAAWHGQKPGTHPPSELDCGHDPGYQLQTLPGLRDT
Sequence of hTREM2 (O43914 22-113 partner): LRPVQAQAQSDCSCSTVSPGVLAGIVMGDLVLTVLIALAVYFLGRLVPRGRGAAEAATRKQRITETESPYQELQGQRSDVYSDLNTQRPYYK
Assay type: cell-based
Design: expressed in transfected cells
Summary of the method: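 Single-cell-cloned HEK293 cells overexpressing TREM2 and DAP12, seeded 20 h, exposed to test articles (1% final DMSO) for 45 min at room temperature. Lysates read for phospho-Syk (Tyr525/526) vs total Syk by AlphaScreen. Signal normalised as percent of control between isotype IgG and 100 nM anti-TREM2 antibody; 4-parameter logistic fit.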
With `Cc1nc2nc(N3CCO[C@@H](c4cnn(C5CC5)c4)C3)nc(-c3ccc(Cl)cc3F)c2nc1C` [Example 22, 4-(4-chloro-2-fluorophenyl)-2-((2S)-2-(1-cyclopropyl-1H-pyrazol-4-yl)-4-morpholinyl)-6,7-dimethylpteridine] the EC50 was at most 50 nM and the “hTREM2 Emax” value was “++++ (Emax>250)”. Compound `Cc1nc2nc(N3CCO[C@H](c4cnn(C)c4)C3)nc(N3CCC[C@@H](F)C3)c2nc1C` [Example 262, (R)-4-(4-((R)-3-fluoropiperidin-1-yl)-6,7-dimethylpteridin-2-yl)-2-(1-methyl-1H-pyrazol-4-yl)morpholine] has an EC50 of 3000 to 100000 nM. With `Cc1ccc(-c2cc([C@@H]3CCO[C@H](c4cnn(C)c4)C3)nc3nc(C)c(C)nc23)c(F)c1` (single isomer, unassigned) [Example 189] the EC50 was 500 to 3000 nM and the “hTREM2 Emax” value was “+++ (Emax>150 and ≤250)”. With `Cc1cc([C@@H]2CN(c3nc4nc(C)c(C)nc4c([C@H]4C[C@H](C(F)(F)F)C4)n3)CCO2)cnn1` [Example 52, 6,7-dimethyl-2-((2R)-2-(6-methyl-4-pyridazinyl)-4-morpholinyl)-4-(trans-3-(trifluoromethyl)cyclobutyl)pteridine] the EC50 was 50 to 500 nM and the “hTREM2 Emax” value was “+++ (Emax>150 and ≤250)”. For `Cc1nc2nc(N3CCO[C@@H](c4cnn(C)c4)C3)nc([C@H]3C[C@H](C(F)F)C3)c2nc1C` [Example 45, 4-(trans-3-(difluoromethyl)cyclobutyl)-6,7-dimethyl-2-((2S)-2-(1-methyl-1H-pyrazol-4-yl)-4-morpholinyl)pteridine], the EC50 was 50 to 500 nM and the “hTREM2 Emax” value was “++ (Emax>100 and ≤150)”. `Cc1cc([C@@H]2CN(c3nc4nc(C)cnc4c([C@H]4C[C@@H](C(F)(F)F)C4)n3)CCO2)cnn1` (single isomer, unassigned) [Example 14] was tested, and the EC50 was 50 to 500 nM and the “hTREM2 Emax” value was “++ (Emax>100 and ≤150)”. With `Cc1nc2nc(N3CCO[C@@H](c4cnn(C)c4)C3)nc(C3=CC[C@H](C(F)(F)F)CC3)c2nc1C` (single isomer, unassigned) [Example 126] the EC50 was 50 to 500 nM and the “hTREM2 Emax” value was “+ (Emax>45 and ≤100)”. `Cc1nc2nc(N3CCO[C@@H](c4cnn(C)c4)C3)nc(C3CCC(C)(C)CC3)c2nc1C` [Example 130, 4-(4,4-dimethylcyclohexyl)-6,7-dimethyl-2-((2S)-2-(1-methyl-1H-pyrazol-4-yl)-4-morpholinyl) pteridine] was tested, and the EC50 was at most 50 nM and the “hTREM2 Emax” value was “+ (Emax>45 and ≤100)”. `Cc1nc2nc(N3CCO[C@@H](c4cnn(C)c4)C3)nc(N3CCC(F)(F)CC3)c2nc1C` [Example 66, 4-(4,4-difluoro-1-piperidinyl)-6,7-dimethyl-2-((2S)-2-(1-methyl-1H-pyrazol-4-yl)-4-morpholinyl)pteridine] showed an EC50 of 500 to 3000 nM. In the case of `Cc1ncc([C@@H]2CN(c3nc(-c4ccc(Cl)cc4F)c4nc(C)c(C)nc4n3)CCO2)cn1` (single isomer, unassigned) [Example 25], the EC50 is reported as at most 50 nM and the “hTREM2 Emax” value is reported as “++++ (Emax>250)”. `Cc1nc2nc(N3CCO[C@@H](c4cnn(C)c4)C3)nc(N3CC(C(F)(F)F)C3)c2nc1C` [Example 30, 6,7-dimethyl-2-((2S)-2-(1-methyl-1H-pyrazol-4-yl)-4-morpholinyl)-4-(3-(trifluoromethyl)-1-azetidinyl)pteridine] was tested, and the EC50 was 500 to 3000 nM and the “hTREM2 Emax” value was “++ (Emax>100 and ≤150)”. In the case of `Cc1cc([C@H]2CN(c3cc(-c4ccc(Cl)cc4F)c4nc(C)c(C)nc4c3)CCO2)ccn1` [Example 163, 5-(4-chloro-2-fluorophenyl)-2,3-dimethyl-7-((2S)-2-(2-methyl-4-pyridinyl)-4-morpholinyl) quinoxaline], the EC50 is reported as at most 50 nM and the “hTREM2 Emax” value is reported as “++++ (Emax>250)”. With `CC(C)N1Cc2c(cc(N3CCO[C@@H](c4cnn(C)c4)C3)nc2-c2ccc(Cl)cc2F)C1=O` [Example 122, 4-(4-chloro-2-fluorophenyl)-6-((2S)-2-(1-methyl-1H-pyrazol-4-yl)-4-morpholinyl)-2-(2-propanyl)-2,3-dihydro-1H-pyrrolo[3,4-c]pyridin-1-one] the EC50 was 500 to 3000 nM and the “hTREM2 Emax” value was “+++ (Emax>150 and ≤250)”. `Cc1cc([C@H]2CN(c3nc(-c4ccc(Cl)cc4F)c4cc(C)c(C)nc4n3)CCO2)cnn1` (single isomer, unassigned) [Example 104] was tested, and the EC50 was at most 50 nM and the “hTREM2 Emax” value was “+++ (Emax>150 and ≤250)”. With `Cc1cc([C@@H]2C[C@@H](c3nc(-c4ccc(F)cc4F)c4cc(C)c(C)nc4n3)CCO2)ccn1` (single isomer, unassigned) [Example 227] the EC50 was at most 50 nM and the “hTREM2 Emax” value was “+++ (Emax>150 and ≤250)”. For `Cc1nc2nc([C@H]3CCO[C@@H](c4cnn(C)c4)C3)nc(-c3ccc(F)cc3F)c2nc1C` (single isomer, unassigned) [Example 182], the EC50 was at most 50 nM and the “hTREM2 Emax” value was “+++ (Emax>150 and ≤250)”. With `Cc1nc2nc(N3CCO[C@@H](c4cnn(C)c4)C3)cc(-c3ccc(Cl)cc3F)c2nc1C` [Example 160, 8-(4-chloro-2-fluorophenyl)-2,3-dimethyl-6-((2S)-2-(1-methyl-1H-pyrazol-4-yl)-4-morpholinyl)pyrido [2,3-b]pyrazine] the EC50 was at most 50 nM and the “hTREM2 Emax” value was “++++ (Emax>250)”. For `CCn1cc([C@H]2CN(c3cc4nc(C)ccc4c(-c4ccc(Cl)cc4F)n3)CCO2)cn1` [Example 239, (S)-4-(5-(4-chloro-2-fluorophenyl)-2-methyl-1,6-naphthyridin-7-yl)-2-(1-ethyl-1H-pyrazol-4-yl)morpholine], the EC50 was 3000 to 100000 nM and the “hTREM2 Emax” value was “+++ (Emax>150 and ≤250)”. `Cc1nc2nc(N3CC[C@H](C(F)F)C3)nc(-c3ccc(Cl)cc3F)c2nc1C` [Example 247, (S)-4-(4-chloro-2-fluorophenyl)-2-(3-(difluoromethyl)pyrrolidin-1-yl)-6,7-dimethylpteridine] was tested, and the EC50 was 50 to 500 nM and the “hTREM2 Emax” value was “+++ (Emax>150 and ≤250)”. With `Cc1nc2nc(N3CC[C@H](C(F)F)C3)nc(-c3ccc(F)cc3F)c2nc1C` [Example 244, (S)-2-(3-(difluoromethyl)pyrrolidin-1-yl)-4-(2,4-difluorophenyl)-6,7-dimethylpteridine] the EC50 was 500 to 3000 nM and the “hTREM2 Emax” value was “+++ (Emax>150 and ≤250)”. In the case of `Cc1nc2nc(N3CCO[C@@H](c4cnn(C)c4)C3)nc(-c3ccc(Cl)cc3F)c2nc1C` [Example 21, 4-(4-chloro-2-fluorophenyl)-6,7-dimethyl-2-((2S)-2-(1-methyl-1H-pyrazol-4-yl)-4-morpholinyl)pteridine], the EC50 is reported as at most 50 nM and the “hTREM2 Emax” value is reported as “++++ (Emax>250)”. In the case of `Cc1cc([C@H]2CN(c3nc(-c4ccc(F)cc4F)c4ccc(C)nc4n3)CCO2)ccn1` [Example 93, 4-(2,4-difluorophenyl)-7-methyl-2-((2S)-2-(2-methyl-4-pyridinyl)-4-morpholinyl)pyrido[2,3-d]pyrimidine], the EC50 is reported as at most 50 nM and the “hTREM2 Emax” value is reported as “+++ (Emax>150 and ≤250)”. `Cc1cc2c(-c3ccc(Cl)cc3F)nc(C3CCO[C@H](c4cnn(C)c4)C3)nc2nc1C` (stereo in doubt) [Example 277, 4-(4-chloro-2-fluorophenyl)-6,7-dimethyl-2-((2S,4R)-2-(1-methyl-1H-pyrazol-4-yl)tetrahydro-2H-pyran-4-yl)pyrido[2,3-d]pyrimidine] was tested, and the EC50 was 50 to 500 nM and the “hTREM2 Emax” value was “+++ (Emax>150 and ≤250)”. In the case of `Cc1cnc2c(n1)nc(N1CCO[C@@H](c3cnn(C4CC4)c3)C1)nc2[C@H]1C[C@@H](C(F)(F)F)C1` [Example 12, 2-((2S)-2-(1-cyclopropyl-1H-pyrazol-4-yl)-4-morpholinyl)-7-methyl-4-(cis-3-(trifluoromethyl)cyclobutyl)pteridine], the EC50 is reported as 500 to 3000 nM and the “hTREM2 Emax” value is reported as “++ (Emax>100 and ≤150)”.
